32 compounds from article PMC6017830, “Furan- and Thiophene-2-Carbonyl Amino Acid Derivatives Activate Hypoxia-Inducible Factor via Inhibition of Factor Inhibiting Hypoxia-Inducible Factor-1” (Molecules : A Journal of Synthetic Chemistry and Natural …, 2018) can be followed below.

One experiment has as its system SKN:HRE-MLuc cells. Description: MTS assay (cellular toxicity). It counts as cell-based, human. Particulars: MTS assay. From the text: Next, we evaluated the activation of HIF by furan- and thiophene-2-carbonyl amino acid derivatives using the evaluation methods described above. Simultaneously, we investigated cellular toxicity for those derivatives with a 3-(4,5-dimethylthiazol-2-yl)-5-(3-carboxymethoxyphenyl)-2-(4-sulfophenyl)-2H-tetrazolium (MTS) assay. To indicate cellular membrane permeability, the partition coefficients, which are frequently represented by calculated logP (clogP) are listed in Table 1 and Table 2.
Cellular toxicity was measured using the CellTiter 96® Aqueous One Solution Cell Proliferation Assay kit (Promega, Madison, WI, USA). The cells were stimulated with each compound and treated with the CellTiter solution. After incubation for 3 h, the absorbance of the solutions at 492 nm was measured by Multiskan FC (Thermo Fisher Scientific, Waltham, MS, USA). As a negative control, wells with culture media were used. Wells treated with DMSO (0.1%) were used as a positive control. The IC50 values were determined using these controls.
A general note: Formazan colour is commonly taken as a measure of viable cells.

Experiment [1] has as its system HIF-HRE transcriptional activity in SKN:HRE-MLuc cells (reflects FIH-1 inhibition). The experiment in a line: HIF activity under hypoxia, HRE-MLuc luciferase reporter assay. It counts as cell-based, human. As to conditions: for activation at 100 µM / minimal effective concentration: Homo sapiens; for activation at 100 µM: read-out: 100 μM Activity (RLU intensity at 100 μM stimulation compared with the positive control DMOG); for minimal effective concentration: doses 100, 25, 6.3, 1.6 μM, DMOG 100 μM as positive control, read-out: 25% Activity (lower dose limit showing 25% of the RLU intensity of the positive control DMOG); for HIF activity (HRE-MLuc reporter), result in words: hypoxic conditions (3% O2), 24 h, reference compounds at 100 μM. The protocol:
To evaluate HIF transactivation following FIH-1 inhibition […], we employed a luciferase reporter assay system in the human neuroblastoma cell line SK-N-BE(2)c. […] Hereafter these HRE reporter cells were designated SKN:HRE-MLuc cells.
SKN:HRE-MLuc (4 × 10^4) were incubated for 24 h on a 96 well culture plate. The medium was replaced with complete media and the test compounds (100, 25, 6.3 and 1.6 μM). DMSO (0.1%) was used as a vehicle control, DMOG (100 μM) and FG4592 (100 μM) were used as a PHDs or FIH-1 inhibitor. The cells were incubated for 24 h under a humidified atmosphere of 5% CO2 and 3% O2 at 37 °C. After incubation, the MLuc activity in culture media was measured with luciferase substrate (Takara, Shiga, Japan) by LB960 luminometer (Berthold, Wildbad, Germany). The HIF activity was calculated as the MLuc intensity, based on the vehicle and positive controls. The lower limit dose out of 100 μM, 25 μM, 6.3 μM, 1.6 μM was listed in Table 1 and Table 2, where 25% RLU intensity was measured using DMOG as a positive control.

Setting [2] is: 100 μM, SKN:HRE-MLuc cells, 3% O2, 24 h.
[3] abbreviates: SKN:HRE-MLuc cells, 3% O2, 24 h.

A value given as a limit tells only on which side of the number the result lay.

A word on the IC50: it is the midpoint of a concentration-inhibition curve. Read a high IC50 as weaker potency. `COC(=O)[C@H](Cc1ccccc1)NC(=O)c1ccc(-c2ccccc2)o1` [Compound 20, (S)-Methyl (5-phenylfuran-2-carbonyl)phenylalaninate] had an IC50 in the experiment on SKN:HRE-MLuc cells (Homo sapiens) above 100 µM. In experiment [1] (setting [2]), the activation at 100 µM worked out at 10%.
`COC(=O)[C@H](Cc1c[nH]c2ccccc12)NC(=O)c1cccs1` [Compound 5, (S)-Methyl (thiophene-2-carbonyl)tryptophanate] registered an IC50 in the experiment with SKN:HRE-MLuc cells (Homo sapiens) above 100 µM. Moreover, in experiment [1] (setting [2]), the activation at 100 µM stood at 0%.
On to `COC(=O)CNC(=O)c1cc2ccccc2s1` [Compound 39, Methyl (benzothiophene-2-carbonyl)glycinate], for which the IC50 in the experiment on SKN:HRE-MLuc cells (Homo sapiens) is above 100 µM. For the same compound, the activation at 100 µM in experiment [1] (setting [2]) turned out to be 13%.
The matching figures for `COC(=O)[C@@H](Cc1ccccc1)NC(=O)c1ccc(C)s1` [Compound 14, (R)-Methyl (5-methylthiophene-2-carbonyl)phenylalaninate]: above 100 µM and 0%.
For `COC(=O)[C@@H](Cc1c[nH]c2ccccc12)NC(=O)c1ccco1` [Compound 4, (R)-Methyl (furan-2-carbonyl)tryptophanate] the same measures were above 100 µM and 0%.
On to `CCOC(=O)[C@@H](Cc1c[nH]c2ccccc12)NC(=O)c1ccc(C)s1` [Compound 18, (R)-Ethyl (5-methylthiophene-2-carbonyl)tryptophanate], for which the IC50 with SKN:HRE-MLuc cells (Homo sapiens) was above 100 µM. Besides, the activation at 100 µM in experiment [1] (setting [2]) was found to be 52%. Moreover, the minimal effective concentration in experiment [1] (setting [3]) turned out to be 100 µM.
In turn, `COC(=O)[C@H](Cc1c[nH]c2ccccc12)NC(=O)c1ccc(-c2ccccc2)s1` [Compound 25, (S)-Methyl (5-phenylthiophene-2-carbonyl)tryptophanate] returned an IC50 with SKN:HRE-MLuc cells (Homo sapiens) above 100 µM. Moreover, the activation at 100 µM in experiment [1] (setting [2]) turned out to be 0%.
Compound `CCOC(=O)[C@H](Cc1ccccc1)NC(=O)c1ccc(-c2ccc(-c3ccccc3)cc2)s1` [Compound 32, (S)-Ethyl (5-((1,1′-biphenyl)-4-yl)thiophene-2-carbonyl)phenylalaninate] returned an IC50 with SKN:HRE-MLuc cells (Homo sapiens) above 100 µM. The activation at 100 µM in experiment [1] (setting [2]) was found to be 0%.
For “(R)-Ethyl (benzothiophene-2-carbonyl)phenylalaninate [Compound 42]”, the IC50 with SKN:HRE-MLuc cells was above 100 µM. Further, in experiment [1] (setting [2]), the “100 μM Activity (RLU intensity at 100 μM stimulation compared with the positive control DMOG)” value is recorded as 0%.
`CCOC(=O)[C@H](C)NC(=O)c1ccc(-c2ccccc2)s1` [Compound 22, (S)-Ethyl (5-phenylthiophene-2-carbonyl)alaninate] came in with an IC50 with SKN:HRE-MLuc cells (Homo sapiens) above 100 µM. The activation at 100 µM in experiment [1] (setting [2]) came out at 16%.
The matching figures for `COC(=O)CNC(=O)c1ccc(-c2ccc(Oc3ccccc3)cc2)s1` [Compound 33, Methyl (5-(4-phenoxyphenyl)thiophene-2-carbonyl)glycinate]: above 100 µM and 0%.
Consider `COC(=O)[C@@H](Cc1c[nH]c2ccccc12)NC(=O)c1cccs1` [Compound 6, (R)-Methyl (thiophene-2-carbonyl)tryptophanate], for which the IC50 in the experiment with SKN:HRE-MLuc cells (Homo sapiens) was above 100 µM. Also, the activation at 100 µM in experiment [1] (setting [2]) is 0%.
For `C[C@H](NC(=O)c1ccc(-c2ccccc2)s1)C(=O)O` [Compound 21, (S)-(5-Phenylthiophene-2-carbonyl)alanine] the same measures were above 100 µM and 0%.
The matching figures for `COC(=O)[C@H](C)NC(=O)c1ccc(-c2ccc(Oc3ccccc3)cc2)s1` [Compound 34, (S)-Methyl (5-(4-phenoxyphenyl)thiophene-2-carbonyl)alaninate]: above 100 µM and 0%.
The matching figures for `CCOC(=O)[C@H](Cc1ccccc1)NC(=O)c1ccc(-c2ccc(Oc3ccccc3)cc2)s1` [Compound 35, (S)-Ethyl (5-(4-phenoxyphenyl)thiophene-2-carbonyl)phenylalaninate]: above 100 µM and 0%.
`COC(=O)[C@H](Cc1ccccc1)NC(=O)c1ccc(-c2ccccc2)s1` [Compound 24, (S)-Methyl (5-phenylthiophene-2-carbonyl)phenylalaninate] had an IC50 in the experiment on SKN:HRE-MLuc cells (Homo sapiens) above 100 µM. Also, in experiment [1] (setting [2]), the activation at 100 µM worked out at 7%.
For `CCOC(=O)[C@H](C)NC(=O)c1cc2ccccc2s1` [Compound 40, (S)-Ethyl (benzothiophene-2-carbonyl)alaninate] the same measures were above 100 µM and 0%.
`CCOC(=O)[C@H](C)NC(=O)c1ccc(C)s1` [Compound 13, (S)-Ethyl (5-methylthiophene-2-carbonyl)alaninate] gave an IC50 in the experiment on SKN:HRE-MLuc cells (Homo sapiens) above 100 µM. The activation at 100 µM in experiment [1] (setting [2]) turned out to be 0%.
Regarding `CCOC(=O)[C@H](Cc1ccccc1)NC(=O)c1ccc(C)s1` [Compound 15, (S)-Ethyl (5-methylthiophene-2-carbonyl)phenylalaninate], the IC50 in the experiment on SKN:HRE-MLuc cells (Homo sapiens) is above 100 µM. Further, the activation at 100 µM in experiment [1] (setting [2]) came out at 12%. Also, the minimal effective concentration in experiment [1] (setting [3]) was determined as 25 µM.
For `COC(=O)C(=O)N[C@H](Cc1ccccc1)C(=O)OC` [DM-NOFD, dimethyl N-oxalyl-D-phenylalanine, reference compound], the “HIF activity (HRE-MLuc reporter), result in words” value in experiment [1] is “significantly enhanced HIF activity”.
`COC(=O)[C@H](Cc1c[nH]c2ccccc12)NC(=O)c1ccc(-c2ccc(Oc3ccccc3)cc2)s1` [Compound 36, (S)-Methyl (5-(4-phenoxyphenyl)thiophene-2-carbonyl)tryptophanate]: the IC50 with SKN:HRE-MLuc cells (Homo sapiens) was above 100 µM. In experiment [1] (setting [2]), the activation at 100 µM came out at 0%.
For `O=C(N[C@@H](Cc1ccccc1)C(=O)O)c1ccc(-c2ccccc2)s1` [Compound 23, (S)-(5-Phenylthiophene-2-carbonyl)phenylalanine] the same measures were above 100 µM and 0%.
For `Cc1ccc(C(=O)N[C@@H](C)C(=O)O)s1` [Compound 12, (S)-(5-Methylthiophene-2-carbonyl)alanine] the same measures were above 100 µM and 18%.
Turning to `COC(=O)CNC(=O)c1ccco1` [Compound 1, Methyl (furan-2-carbonyl)glycinate], the IC50 with SKN:HRE-MLuc cells (Homo sapiens) was above 100 µM. The activation at 100 µM in experiment [1] (setting [2]) came out at 20%. Also, the minimal effective concentration in experiment [1] (setting [3]) amounted to 25 µM. For the same compound, the “HIF activity (HRE-MLuc reporter), result in words” value in experiment [1] was “stabilized HIF and transactivated the HRE-driven MLuc reporter”.
In the experiment on SKN:HRE-MLuc cells (Homo sapiens), `COC(=O)CNC(=O)c1cccs1` [Compound 2, Methyl (thiophene-2-carbonyl)glycinate] had a half-maximal inhibitory concentration (IC50) above 100 µM. For the same compound, the activation at 100 µM in experiment [1] (setting [2]) was 0%.
`Cc1ccc(C(=O)N[C@H](Cc2c[nH]c3ccccc23)C(=O)O)s1` [Compound 16, (R)-(5-methylthiophene-2-carbonyl)tryptophan] gave an IC50 with SKN:HRE-MLuc cells (Homo sapiens) above 100 µM. Besides, the activation at 100 µM in experiment [1] (setting [2]) is 30%. Further, the minimal effective concentration in experiment [1] (setting [3]) stood at 100 µM.
In the experiment with SKN:HRE-MLuc cells (Homo sapiens), `COC(=O)[C@@H](Cc1ccccc1)NC(=O)c1ccc(C)o1` [Compound 8, (R)-Methyl (5-methylfuran-2-carbonyl)phenylalaninate] gave an IC50 above 100 µM. Besides, the activation at 100 µM in experiment [1] (setting [2]) was determined as 2%.
Take `COC(=O)[C@H](Cc1ccc(O)cc1)NC(=O)c1cc2ccccc2s1` [Compound 44, (S)-Methyl (benzothiophene-2-carbonyl)tyrosinate]: in the experiment with SKN:HRE-MLuc cells (Homo sapiens), the IC50 was above 100 µM. Further, in experiment [1] (setting [2]), the activation at 100 µM was 0%.
Turning to `O=C(N[C@@H](Cc1ccccc1)C(=O)O)c1ccc(-c2ccccc2)o1` [Compound 19, (S)-(5-Phenylfuran-2-carbonyl)phenylalanine], in the experiment with SKN:HRE-MLuc cells (Homo sapiens), the IC50 was above 100 µM. The activation at 100 µM in experiment [1] (setting [2]) worked out at 0%.
For `CCOC(=O)[C@H](Cc1ccccc1)NC(=O)c1cc2ccccc2s1` [Compound 41, (S)-Ethyl (benzothiophene-2-carbonyl)phenylalaninate] the same measures were above 100 µM and 2%.
For `COC(=O)[C@H](Cc1c[nH]c2ccccc12)NC(=O)c1cc2ccccc2s1` [Compound 43, (S)-Methyl (benzothiophene-2-carbonyl)tryptophanate] the same measures were above 100 µM and 0%.
`CCOC(=O)[C@H](Cc1c[nH]c2ccccc12)NC(=O)c1ccc(C)s1` [Compound 17, (S)-Ethyl (5-methylthiophene-2-carbonyl)tryptophanate] showed a 50% inhibitory concentration (IC50) in the experiment with SKN:HRE-MLuc cells (Homo sapiens) above 100 µM. Moreover, the activation at 100 µM in experiment [1] (setting [2]) was 49%. Besides, the minimal effective concentration in experiment [1] (setting [3]) is 100 µM.
